The target of one data set is PAR-1 receptor (Homo sapiens (Human), UniProt P25116). The data set can be described thus: PAR-1 FLIPR Assay. In kind it is cell-based. Conditions: HEK 293 cells, calcium signal after PAR-1 selective receptor-activating peptide at EC80. The protocol: This assay measures the potency of the inventive compounds as PAR-1 receptor antagonists.
Frozen HEK 293 Cells were plated in 384-well PDL coated plates at 12000 cells/well in 50 uL of DMEM media containing 10% FBS, pen/strep/L-Glutamine and non-essential amino acids, incubated overnight at 37° C./5% CO2. Media was then removed from the cells, incubated with 33 uL of Calcium-5 dye in assay buffer (Hank's buffer containing 20 mM HEPES, 0.04% Chaps and 2.5 mM Probenecid) for 60 minutes at 37° C. 2 uL of varying concentrations of compound in 40% DMSO in assay buffer (final DMSO concentration is […]) were then added to the cells and incubated at 25° C. for 30 minutes. The plates were added to the FLIPR Tetra®, the device added 5 μL of PAR-1 selective receptor-activating peptide (sequence Ala-parafluoroPhe-Arg-Cha-Cit-Try-NH2, prepared in water) at a concentration equal to the effective concentration that achieved 80% activation of signaling on the day of the experiment. The range of peptide was from 1.5-3 μM. The final volume is 40 uL/well, with 2% DMSO. The FLIPR was read at an excitation wavelength of 480 nm and an emission wavelength of 535 nm, and performed 60 scans over a 1-2 min reading time. The data were analyzed by taking the peak signal over a portion of the range of the 60 scans and dividing this signal by the minimum signal for that same range. The data were expressed as percent inhibition of the maximum divided by the minimum signal achieved at 80% activation produced by the PAR1 activating peptide on the test day. The compounds of Examples 1-13 were tested in the assay described above and the data collected for these compounds is provided.

Another data set concerns the target CYP3A4 (Homo sapiens (Human), UniProt P08684). Put plainly: CYP MUX (3A4) RI. Conditions: human liver microsomes, substrate testosterone, 37° C. 10 min. In kind it is in vitro ADME. From the text: This assay measures inhibition of CYP3A4 by a compound. Cytochromes P450 (CYPs) constitute a superfamily of heme-containing enzymes that recognize and metabolize a large number structurally diverse xenobiotics in the human body. CYP3A4 constitutes the largest portion of CYP enzymes in the liver that accounts for the metabolism of almost 50% of all drugs. This assay is used to evaluate the potential of a compound for developing DDIs. (Clarke, S. E.; Jones B. C. Drug-Drug Interactions, New York: Marcel Dekker; 2002. pp. 53-88).
Compound dilutions and assay-ready plates were prepared on a TTP Labtech mosquito® HTS. Assay conduction was fully automated on a customized Screening Platform from Caliper (now PerkinElmer) containing a Mitsubishi robotic plate handler, Liconic incubators, a Caliper Zephyr® liquid handling workstation equipped with temperature-controlled deck positions, a Biotek MultiFlo™ dispenser and an Agilent PlateLoc heat sealer. Assay plates were Corning Costar® 384 well PP plates. High throughput mass spectrometric readout was performed on a RapidFire® 300 system coupled to an AB Sciex API 4000™ triple quadrupole device. CYP isoform 3A4 was incubated in a separate reaction of 50 μL final volume. 25 μL of HLM (human liver microsomes, BD UltraPool™ 150, 0.25 mg/mL final concentration) and the respective substrate, testosterone (75 μM) for 3A4, in potassium phosphate buffer (100 mM, pH=7.4) were added to 250 nL of stamped compound solution (10 mM in DMSO). The reactions were started upon addition of 25 μL of a co-factor solution containing magnesium chloride (3.3 mM), glucose-6-phosphate (3.3 mM), glucose-6-phosphate dehydrogenase (1.4 units) and NADP (1 mM) in potassium phosphate buffer (100 mM, pH=7.4) and incubated on deck at 37° C. for 10 min. 8 μL of each reaction were transferred to the same readout plated filled with 48 μL of stop solution containing internal standards (concentration in final readout plate), 6-hydroxytestosterone-D7 (0.5 μM), 4′-hydroxydiclofenac-D4 (0.2 and dextrorphan-D3 (0.01 in acetonitrile with 0.5% formic acid. After heat sealing, plates were stored at −20° C. for at least 30 min, centrifuged and subjected directly to RapidFire®/MS analysis.
(Liver microsomes are a subcellular fraction often used to study metabolism.)

Chain of CYP3A4 (P08684 whole entry): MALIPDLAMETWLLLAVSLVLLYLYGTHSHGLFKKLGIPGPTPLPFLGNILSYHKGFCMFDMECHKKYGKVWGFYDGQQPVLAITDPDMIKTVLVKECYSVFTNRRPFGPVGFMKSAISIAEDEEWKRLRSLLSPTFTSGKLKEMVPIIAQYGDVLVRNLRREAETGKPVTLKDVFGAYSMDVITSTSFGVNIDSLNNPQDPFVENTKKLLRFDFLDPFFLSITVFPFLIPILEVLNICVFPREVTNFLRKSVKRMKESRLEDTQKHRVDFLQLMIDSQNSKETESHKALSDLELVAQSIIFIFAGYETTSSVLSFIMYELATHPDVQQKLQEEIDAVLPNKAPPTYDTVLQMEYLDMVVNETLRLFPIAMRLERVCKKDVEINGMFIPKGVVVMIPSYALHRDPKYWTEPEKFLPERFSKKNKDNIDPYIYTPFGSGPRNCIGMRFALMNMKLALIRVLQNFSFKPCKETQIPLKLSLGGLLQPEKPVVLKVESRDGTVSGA
Chain of PAR-1 receptor (P25116 22-425): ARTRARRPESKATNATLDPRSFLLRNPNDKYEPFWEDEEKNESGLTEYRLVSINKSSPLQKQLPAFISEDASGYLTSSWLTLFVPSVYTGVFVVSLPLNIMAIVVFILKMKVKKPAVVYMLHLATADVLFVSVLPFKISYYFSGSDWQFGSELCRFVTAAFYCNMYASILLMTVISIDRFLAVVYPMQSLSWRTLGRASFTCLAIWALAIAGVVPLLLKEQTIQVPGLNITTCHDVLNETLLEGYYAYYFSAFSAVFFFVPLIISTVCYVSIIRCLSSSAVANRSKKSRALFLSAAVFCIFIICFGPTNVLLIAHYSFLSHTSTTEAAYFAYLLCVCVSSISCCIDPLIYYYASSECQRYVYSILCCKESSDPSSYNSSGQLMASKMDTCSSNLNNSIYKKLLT

In the case of `C[C@H]1OC(=O)[C@]2(c3cc[nH]n3)CC(F)(F)[C@@H](C)[C@H](/C=C/c3ccc(-c4cccnc4C#N)cn3)[C@H]12` [Example 13, 6′-((E)-2-((3R,3aS,4R,5S,7aR)-6,6-difluoro-3,5-dimethyl-1-oxo-7a-(1H-pyrazol-3-yl)octahydroisobenzofuran-4-yl)vinyl)-[3,3′-bipyridine]-2-carbonitrile], the concentration for half-maximal inhibition (IC50) (as a rule, the concentration that gives 50% inhibition) on PAR-1 receptor turned out to be 6.2 nM; against CYP3A4, 8800 nM.
For the molecule `Cc1cccc(-c2ccc(/C=C/[C@@H]3[C@@H]4[C@@H](C)OC(=O)[C@]4(c4n[nH]c(=O)o4)CC(F)(F)[C@H]3C)nc2)c1C#N` [Example 2, 2-(6-((E)-2-((3R,3aS,4R,5S,7aR)-6,6-difluoro-3,5-dimethyl-1-oxo-7a-(5-oxo-4,5-dihydro-1,3,4-oxadiazol-2-yl)octahydroisobenzofuran-4-yl)vinyl)pyridin-3-yl)-6-methylbenzonitrile], the figures for the IC50 on PAR-1 receptor and against CYP3A4 were 1.34 nM and 22800 nM, respectively.
In the case of `Cc1nnc([C@@]23CC(F)(F)[C@@H](C)[C@H](/C=C/c4ccc(-c5cccc(C)c5C#N)cn4)[C@@H]2[C@@H](C)OC3=O)o1` [Example 5, 2-(6-((E)-2-((3R,3aS,4R,5S,7aR)-6,6-difluoro-3,5-dimethyl-7a-(5-methyl-1,3,4-oxadiazol-2-yl)-1-oxooctahydroisobenzofuran-4-yl)vinyl)pyridin-3-yl)-6-methylbenzonitrile], the half-maximal inhibitory concentration (IC50) is 2.45 nM on PAR-1 receptor and 16900 nM against CYP3A4.
For `Cc1cccc(-c2ccc(/C=C/[C@@H]3[C@@H]4[C@@H](C)OC(=O)[C@]4(c4nnc(N)o4)CC(F)(F)[C@H]3C)nc2)c1C#N` [Example 3, 2-(6-((E)-2-((3R,3aS,4R,5S,7aR)-7a-(5-amino-1,3,4-oxadiazol-2-yl)-6,6-difluoro-3,5-dimethyl-1-oxooctahydroisobenzofuran-4-yl)vinyl)pyridin-3-yl)-6-methylbenzonitrile], in that order: 1.22 nM and 10400 nM.
On to `Cc1cccc(-c2ccc(/C=C/[C@@H]3[C@@H]4[C@@H](C)OC(=O)[C@]4(c4cc(C)n(C)n4)CC(F)(F)[C@H]3C)nc2)c1C#N` [Example 11], for which the IC50 on PAR-1 receptor came out at 6.3 nM; against CYP3A4, 17600 nM.
Take `C[C@H]1OC(=O)[C@]2(c3cc(C(C)(C)C)[nH]n3)CC(F)(F)[C@@H](C)[C@H](/C=C/c3ccc(-c4ccccc4C#N)cn3)[C@H]12` [Example 9, 2-(6-((E)-2-((3R,3aS,4R,5S,7aR)-7a-(5-(tert-butyl)-1H-pyrazol-3-yl)-6,6-difluoro-3,5-dimethyl-1-oxooctahydroisobenzofuran-4-yl)vinyl)pyridin-3-yl)benzonitrile]: at PAR-1 receptor, the IC50 was determined as 14.5 nM.
Turning to `C[C@H]1OC(=O)[C@]2(c3n[nH]c(=O)o3)CC(F)(F)[C@@H](C)[C@H](/C=C/c3ccc(-c4cccc(F)c4)cn3)[C@H]12` [Example 8, 5-((1R,3aR,6S,7R,7aS)-5,5-difluoro-7-((E)-2-(5-(3-fluorophenyl)pyridin-2-yl)vinyl)-1,6-dimethyl-3-oxooctahydroisobenzofuran-3a-yl)-1,3,4-oxadiazol-2(3H)-one], at PAR-1 receptor, the concentration for half-maximal inhibition (IC50) amounted to 28.7 nM.
`C[C@H]1OC(=O)[C@]2(c3n[nH]c(=O)o3)CC(F)(F)[C@@H](C)[C@H](/C=C/c3ccc(-c4ccccc4C#N)cn3)[C@H]12` [Example 1, 2-(6-((E)-2-((3R,3aS,4R,5S,7aR)-6,6-difluoro-3,5-dimethyl-1-oxo-7a-(5-oxo-4,5-dihydro-1,3,4-oxadiazol-2-yl)octahydroisobenzofuran-4-yl)vinyl)pyridin-3-yl)benzonitrile]: the IC50 on PAR-1 receptor was determined as 4.22 nM; against CYP3A4, 21800 nM.
In the case of `Cc1cccc(-c2ccc(/C=C/[C@@H]3[C@@H]4[C@@H](C)OC(=O)[C@]4(c4nnc(-c5ccccc5)o4)CC(F)(F)[C@H]3C)nc2)c1C#N` [Example 7], the IC50 at PAR-1 receptor came out at 5.01 nM.
Take `C[C@H]1OC(=O)[C@]2(c3cc(C(C)(C)C)n(C)n3)CC(F)(F)[C@@H](C)[C@H](/C=C/c3ccc(-c4ccccc4C#N)cn3)[C@H]12` [Example 10, 2-(6-((E)-2-((3R,3aS,4R,5S,7aR)-7a-(5-(tert-butyl)-1-methyl-1H-pyrazol-3-yl)-6,6-difluoro-3,5-dimethyl-1-oxooctahydroisobenzofuran-4-yl)vinyl)pyridin-3-yl)benzonitrile]: the half-maximal inhibitory concentration (IC50) at PAR-1 receptor was 25.3 nM; on CYP3A4 it was ≥ 50000 nM.
With `C[C@H]1OC(=O)[C@]2(c3nnc(N)o3)CC(F)(F)[C@@H](C)[C@H](/C=C/c3ccc(-c4ccccc4C#N)cn3)[C@H]12` [Example 4, 2-(6-((E)-2-((3R,3aS,4R,5S,7aR)-7a-(5-amino-1,3,4-oxadiazol-2-yl)-6,6-difluoro-3,5-dimethyl-1-oxooctahydroisobenzofuran-4-yl)vinyl)pyridin-3-yl)benzonitrile], the IC50 is 3.08 nM on PAR-1 receptor and 9900 nM at CYP3A4.
Turning to `C[C@H]1OC(=O)[C@]2(c3cc[nH]n3)CC(F)(F)[C@@H](C)[C@H](/C=C/c3ccc(-c4ccccc4C#N)cn3)[C@H]12` [Example 12, 2-(6-((E)-2-((3R,3aS,4R,5S,7aR)-6,6-difluoro-3,5-dimethyl-1-oxo-7a-(1H-pyrazol-3-yl)octa hydroisobenzofuran-4-yl)vinyl)pyridin-3-yl)benzonitrile], the IC50 at PAR-1 receptor is 0.99 nM; at CYP3A4 it was 2400 nM.
With `Cc1cccc(-c2ccc(/C=C/[C@@H]3[C@@H]4[C@@H](C)OC(=O)[C@]4(c4nnc(C5CC5)o4)CC(F)(F)[C@H]3C)nc2)c1C#N` [Example 6, 2-(6-((E)-2-((3R,3aS,4R,5S,7aR)-7a-(5-cyclopropyl-1,3,4-oxadiazol-2-yl)-6,6-difluoro-3,5-dimethyl-1-oxooctahydroisobenzofuran-4-yl)vinyl)pyridin-3-yl)-6-methylbenzonitrile], the half-maximal inhibitory concentration (IC50) on PAR-1 receptor came to 2.07 nM.

Values taken from patent publication US10322140B2, “Preparation and use of 7a-heterocycle substituted-6,6-difluoro bicyclic himbacine derivatives as PAR-1 receptor antagonists” (Merck Sharp & Dohme Corp., priority 2013, dated 2019).
